The values that follow come from patent US20140005163A1 (NOVARTIS AG, priority 2010, published 2014).

As usually defined, the IC50 is the concentration needed to halve the response being measured.

The subject of experiment [1] is PKB Ser473 phosphorylation in Rat1-myr-HA-p110 alpha cells. Kind of experiment: Reverse protein array assay, PKB Ser473 phosphorylation in Rat1-myr-p110 alpha cells. Type of experiment: cell-based. As to conditions: 0.5 h, pAkt Ser473, 30 minutes compound incubation, read-out: p-PKB IC50. The procedure, abridged: (§1)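 Cells: Rat1-myr-HA-p110 alpha/beta/delta, seeded ≥20 h. Lysis on ice 10 min; reverse-phase protein array, 4 lysate dilutions; fluorescence read, relative intensity.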

Another experiment addresses T1, PI3K delta (Homo sapiens, UniProt O00329).
T1 construct: for the full-length p110-d subunit are generated and fused by overlapping PCR; p85(iSH2) fusion partner (see partner chain) (N); His tag (C); made in house; host or cells: baculovirus; Tn5 (Trichoplusia ni) or TiniPro insect cells
Kind of experiment: PI3K delta kinase assay (Kinase-Glo luminescence). Format: biochemical. The procedure, abridged: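 Lipid kinase activity of a His-tagged p110δ full-length/p85 iSH2 fusion (10 nM) toward bovine liver phosphatidylinositol (10 μg/mL) at 1 μM ATP, pH 7.5, 60 min, room temperature. ATP consumption is quantified by luciferase-based luminescence. Four-parameter logistic fitting gives IC50.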

A further experiment has as its target T2, PI3K gamma (Homo sapiens, UniProt P48736).
T2 construct: His tag (C); made in house; host or cells: baculovirus (pVL1393); Tn5 or TiniPro insect cells; construct from Roger Williams lab, MRC LMB
Kind of experiment: PI3K gamma kinase assay (Kinase-Glo luminescence). Format: biochemical. How it is done:
In a more preferred assay, the kinase reaction is performed in a final volume of 10 μL per well of a low volume non binding CORNING, 384 well black plate (Cat. No. #3676). The final concentrations of ATP and phosphatidyl inositol (PI) in the assay are 1 μM and 10 μg/mL respectively. The reaction is started by the addition of ATP.
The components of the assay are added per well as follows:
[…] in 90% DMSO per well, in columns 1-20, 8 concentrations (1/3 and 1/3.33 serial dilution step) in single. • Low control: […] of 90% DMSO in half the wells of columns 23-24 (0.45% in final). • High control: […] of reference compound (e.g. compound of Example 7 in WO 2006/122806) in the other half of columns 23-24 (2.5 μM in final). • Standard: […] of reference compound as just mentioned diluted as the test compounds in columns 21-22 • 20 mL ‘buffer’ are prepared per assay: • 200 μL of 1M TRIS HCl pH7.5 (10 mM in final) • 60 μL of 1M MgCl2 (3 mM in final) • 500 μL of 2M NaCl (50 mM in final) • 100 μL of 10% CHAPS (0.05% in final) • 200 μL of 100 mM DTT (1 mM in final) • 18.94 mL of nanopure water • 10 mL ‘PI’ are prepared per assay: • 200 μL of 1 mg/ml L-alpha-Phosphatidylinositol (Liver Bovine, Avanti Polar Lipids Cat. No. 840042C MW=909.12) prepared in 3% OctylGlucoside (10 μg/ml in final) • 9.8 mL of ‘buffer’ • 10 mL ‘ATP’ are prepared per assay: • 6.7 μL of 3 mM stock of ATP giving a final concentration of 1 μM per well • 10 mL of ‘buffer’ • 2.5 mL of each PI3K construct are prepared per assay in ‘PI’ with the following final concentration: • 10 nM PI3K alfa EMV B1075 • 25 nM beta EMV BV949 • 10 nM delta EMV BV1060 • 150 nM gamma EMV BV950 • 5 μL of ‘PI/PI3K’ are added per well. • 5 μl ‘ATP’ are added per well to start the reaction. • The plates are then incubated at room temperature for 60 minutes (alfa, beta, delta) or 120 minutes (gamma). • The reaction is terminated by the addition of 10 μL Kinase-Glo (Promega Cat. No. #6714). • The assay plates are read after 10 minutes in Synergy 2 reader (BioTek, Vermont USA) with an integration time of 100 milliseconds and sensitivity set to 191. • Output: The High control is around 60'000 counts and the Low control is 30'000 or lower • This luminescence assay gives a useful Z′ ratio between 0.4 and 0.7
IC50 is determined by a four parameter curve fitting routine that comes along with “excel fit”. […] Alternatively, IC50 values are calculated using idbsXLfit model 204, which is a 4 parameter logistic model.
In general terms: Kinase-Glo measures the ATP left after a reaction by luminescence.

Experiment [2] deals with PKB Ser473 phosphorylation in Rat1-myr-HA-p110 beta cells. Kind of experiment: Reverse protein array assay, PKB Ser473 phosphorylation in Rat1-myr-p110 beta cells. Format: cell-based. The note with it: 0.5 h, pAkt Ser473, 30 minutes incubation, read-out: p-PKB IC50. In a few lines: as §1
A further experiment has as its target T3, PI3K beta (Homo sapiens, UniProt P42338).
T3 construct: for the full-length p110-b subunit are generated and fused by overlapping PCR; p85(iSH2) fusion partner (see partner chain) (N); His tag (C); made in house; host or cells: baculovirus; Tn5 (Trichoplusia ni) or TiniPro insect cells
Kind of experiment: PI3K beta kinase assay (Kinase-Glo luminescence). Format: biochemical. In a few lines: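 Full-length p110β with a Gly-linked p85 iSH2 and a C-terminal His tag (BV949, 25 nM) was incubated with 10 μg/mL phosphatidylinositol and 1 μM ATP in 10 mM Tris pH 7.5, 3 mM MgCl2, 50 mM NaCl, 0.05% CHAPS, 1 mM DTT for 60 min at room temperature. Residual ATP was read by Kinase-Glo luminescence.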

The target in a further experiment is T4, PI3K alpha (Homo sapiens, UniProt P42336).
T4 construct: p85(iSH2) fusion partner (see partner chain) (N); His tag (C); made in house; host or cells: baculovirus; Tn5 (Trichoplusia ni) or TiniPro insect cells
Kind of experiment: PI3K alpha kinase assay (Kinase-Glo luminescence). Type of experiment: biochemical. The procedure, abridged: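 Enzyme 10 nM PI3Kα EMV B1075; ATP 1 μM; PI 10 μg/mL; Tris-HCl pH 7.5 10 mM, MgCl2 3 mM, NaCl 50 mM, CHAPS 0.05%, DTT 1 mM; 60 min RT; Kinase-Glo luminescence; 4-parameter IC50 fit, 8 concentrations, single points.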

The test system of experiment [3] is PKB Ser473 phosphorylation in Rat1-myr-HA-p110 delta cells. As to the kind of experiment: Reverse protein array assay, PKB Ser473 phosphorylation in Rat1-myr-p110 delta cells. Format: cell-based. As to conditions: read-out: p-PKB IC50. In a few lines: as §1
Another experiment has as its target T5, mTOR (Homo sapiens, UniProt P42345).
T5 construct: purchased Invitrogen Corporation (Carlsbad/CA, USA) PV4753
Kind of experiment: Biochemical assay for m-TOR by TR-FRET. The note with it: 8 μM ATP, 400 nM GFP-4EBP1, 0.5 nM mTOR. The procedure, abridged: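 mTOR (0.5 nM final) phosphorylated GFP-4EBP1 (400 nM final) with ATP (8 μM final) at rt in 50 mM HEPES pH 7.5, 10 mM MnCl2, 50 mM NaCl, 1 mM EGTA, 1 mM DTT. EDTA stop with Tb3+-anti-p4EBP1 [pThr46] antibody (0.5 nM); TR-FRET read 15 min later.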

The test system of experiment [4] is S6 Ribosomal Protein phosphorylation Ser235/236 in TSC1 null mouse embryo fibroblast (MEF) cells. As to the kind of experiment: Reverse protein array assay, S6 Ribosomal Protein phosphorylation Ser235/236 in TSC1 null MEF cells. Format: cell-based. As to conditions: 1 h, pS6 ribosomal protein Ser235/236, 60 minutes incubation, read-out: p-S6 IC50. The procedure, abridged:
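TSC1−/− MEFs, seeded and held ≥20 h at 37 °C/5% CO2, were exposed to 8-step serial compound dilutions (0.02% DMSO final; DMSO vehicle control) for 60 min at 37 °C. Cells were then lysed on ice for 10 min and lysates spotted onto reverse protein array chips.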

T4 sequence (P42336 with tags, fused parts or gaps limits assumed): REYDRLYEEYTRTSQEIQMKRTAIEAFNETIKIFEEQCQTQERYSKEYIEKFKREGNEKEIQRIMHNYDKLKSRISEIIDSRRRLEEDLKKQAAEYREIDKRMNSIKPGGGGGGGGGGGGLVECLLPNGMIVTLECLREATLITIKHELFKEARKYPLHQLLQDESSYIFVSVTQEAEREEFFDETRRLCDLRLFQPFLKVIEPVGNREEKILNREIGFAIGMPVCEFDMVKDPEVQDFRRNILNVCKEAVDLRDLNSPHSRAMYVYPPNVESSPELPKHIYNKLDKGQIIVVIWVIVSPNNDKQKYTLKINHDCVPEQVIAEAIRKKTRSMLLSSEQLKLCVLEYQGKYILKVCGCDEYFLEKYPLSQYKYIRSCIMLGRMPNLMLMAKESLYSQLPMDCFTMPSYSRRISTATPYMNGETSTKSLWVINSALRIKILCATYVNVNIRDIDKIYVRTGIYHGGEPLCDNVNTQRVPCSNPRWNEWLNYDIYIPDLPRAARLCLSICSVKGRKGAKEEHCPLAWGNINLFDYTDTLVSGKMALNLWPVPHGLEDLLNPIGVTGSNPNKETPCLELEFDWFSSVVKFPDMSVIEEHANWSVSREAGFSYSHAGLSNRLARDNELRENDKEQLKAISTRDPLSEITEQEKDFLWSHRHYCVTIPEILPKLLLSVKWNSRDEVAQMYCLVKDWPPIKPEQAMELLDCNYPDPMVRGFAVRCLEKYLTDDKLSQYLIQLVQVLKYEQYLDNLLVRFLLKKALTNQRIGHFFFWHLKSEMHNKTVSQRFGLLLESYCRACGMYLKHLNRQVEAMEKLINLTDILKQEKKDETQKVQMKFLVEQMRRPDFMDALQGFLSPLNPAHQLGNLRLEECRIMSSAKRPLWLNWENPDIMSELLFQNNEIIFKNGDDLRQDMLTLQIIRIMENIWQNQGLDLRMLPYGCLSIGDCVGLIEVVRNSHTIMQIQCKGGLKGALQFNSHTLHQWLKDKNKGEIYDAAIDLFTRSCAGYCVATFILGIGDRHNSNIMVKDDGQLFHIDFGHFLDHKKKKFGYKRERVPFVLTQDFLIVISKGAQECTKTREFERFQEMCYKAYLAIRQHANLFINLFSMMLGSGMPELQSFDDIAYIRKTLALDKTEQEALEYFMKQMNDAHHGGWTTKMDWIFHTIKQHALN
T2 sequence (P48736 144-1102 limits assumed): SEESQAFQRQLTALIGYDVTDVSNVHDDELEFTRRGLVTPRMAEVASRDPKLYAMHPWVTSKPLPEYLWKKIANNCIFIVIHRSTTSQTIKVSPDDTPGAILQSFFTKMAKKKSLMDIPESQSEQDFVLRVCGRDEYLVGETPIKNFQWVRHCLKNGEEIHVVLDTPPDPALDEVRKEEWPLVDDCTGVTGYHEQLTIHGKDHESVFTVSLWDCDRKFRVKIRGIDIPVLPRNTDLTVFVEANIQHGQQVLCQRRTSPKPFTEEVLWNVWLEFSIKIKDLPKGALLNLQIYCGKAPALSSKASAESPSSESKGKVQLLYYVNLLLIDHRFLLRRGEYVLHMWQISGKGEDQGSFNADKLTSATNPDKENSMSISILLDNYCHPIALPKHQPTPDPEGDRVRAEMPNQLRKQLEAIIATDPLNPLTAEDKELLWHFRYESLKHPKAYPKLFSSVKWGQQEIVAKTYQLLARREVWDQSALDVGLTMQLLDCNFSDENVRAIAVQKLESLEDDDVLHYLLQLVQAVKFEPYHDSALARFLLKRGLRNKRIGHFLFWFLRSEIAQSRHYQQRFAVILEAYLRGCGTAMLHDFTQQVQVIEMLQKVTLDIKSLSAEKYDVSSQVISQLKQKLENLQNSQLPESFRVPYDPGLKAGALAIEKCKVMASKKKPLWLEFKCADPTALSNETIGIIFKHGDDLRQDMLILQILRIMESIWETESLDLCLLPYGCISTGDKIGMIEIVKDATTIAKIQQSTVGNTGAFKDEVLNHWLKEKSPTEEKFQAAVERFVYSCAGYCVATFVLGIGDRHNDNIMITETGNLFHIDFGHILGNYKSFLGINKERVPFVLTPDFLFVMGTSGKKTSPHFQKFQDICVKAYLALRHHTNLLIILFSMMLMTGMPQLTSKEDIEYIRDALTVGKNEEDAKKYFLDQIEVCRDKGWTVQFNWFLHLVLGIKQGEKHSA
T3 sequence (P42338 with tags, fused parts or gaps limits assumed): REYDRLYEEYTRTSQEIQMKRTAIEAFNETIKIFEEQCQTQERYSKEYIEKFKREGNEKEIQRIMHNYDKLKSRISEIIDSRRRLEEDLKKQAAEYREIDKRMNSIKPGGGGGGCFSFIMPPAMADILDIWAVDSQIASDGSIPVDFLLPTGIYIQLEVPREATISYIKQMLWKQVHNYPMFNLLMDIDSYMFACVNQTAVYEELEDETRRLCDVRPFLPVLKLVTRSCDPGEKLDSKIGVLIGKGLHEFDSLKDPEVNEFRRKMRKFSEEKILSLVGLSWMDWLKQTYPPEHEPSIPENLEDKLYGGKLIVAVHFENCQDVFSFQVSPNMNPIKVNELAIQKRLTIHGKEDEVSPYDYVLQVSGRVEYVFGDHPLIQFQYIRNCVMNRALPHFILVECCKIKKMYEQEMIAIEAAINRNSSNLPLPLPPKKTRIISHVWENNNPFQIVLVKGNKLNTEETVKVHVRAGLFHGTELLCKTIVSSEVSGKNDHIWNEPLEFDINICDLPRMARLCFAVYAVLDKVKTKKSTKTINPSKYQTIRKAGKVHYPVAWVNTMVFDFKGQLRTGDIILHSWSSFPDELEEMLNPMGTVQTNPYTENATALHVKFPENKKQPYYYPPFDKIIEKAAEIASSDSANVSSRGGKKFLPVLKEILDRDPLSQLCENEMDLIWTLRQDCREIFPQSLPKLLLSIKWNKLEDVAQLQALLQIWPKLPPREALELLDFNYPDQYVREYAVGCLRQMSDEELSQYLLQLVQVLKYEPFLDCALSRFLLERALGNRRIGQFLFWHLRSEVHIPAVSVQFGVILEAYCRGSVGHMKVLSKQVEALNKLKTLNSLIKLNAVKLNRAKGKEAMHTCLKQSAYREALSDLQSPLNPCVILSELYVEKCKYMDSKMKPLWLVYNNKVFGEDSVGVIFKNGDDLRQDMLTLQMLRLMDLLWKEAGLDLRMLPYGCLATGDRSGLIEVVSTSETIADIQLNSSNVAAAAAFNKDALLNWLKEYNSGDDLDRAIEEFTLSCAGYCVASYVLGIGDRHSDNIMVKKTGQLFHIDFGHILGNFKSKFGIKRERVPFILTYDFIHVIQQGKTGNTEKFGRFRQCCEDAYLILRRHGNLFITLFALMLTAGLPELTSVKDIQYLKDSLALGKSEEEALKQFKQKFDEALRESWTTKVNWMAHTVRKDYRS
T5 sequence (P42345 1360-2549 limits assumed): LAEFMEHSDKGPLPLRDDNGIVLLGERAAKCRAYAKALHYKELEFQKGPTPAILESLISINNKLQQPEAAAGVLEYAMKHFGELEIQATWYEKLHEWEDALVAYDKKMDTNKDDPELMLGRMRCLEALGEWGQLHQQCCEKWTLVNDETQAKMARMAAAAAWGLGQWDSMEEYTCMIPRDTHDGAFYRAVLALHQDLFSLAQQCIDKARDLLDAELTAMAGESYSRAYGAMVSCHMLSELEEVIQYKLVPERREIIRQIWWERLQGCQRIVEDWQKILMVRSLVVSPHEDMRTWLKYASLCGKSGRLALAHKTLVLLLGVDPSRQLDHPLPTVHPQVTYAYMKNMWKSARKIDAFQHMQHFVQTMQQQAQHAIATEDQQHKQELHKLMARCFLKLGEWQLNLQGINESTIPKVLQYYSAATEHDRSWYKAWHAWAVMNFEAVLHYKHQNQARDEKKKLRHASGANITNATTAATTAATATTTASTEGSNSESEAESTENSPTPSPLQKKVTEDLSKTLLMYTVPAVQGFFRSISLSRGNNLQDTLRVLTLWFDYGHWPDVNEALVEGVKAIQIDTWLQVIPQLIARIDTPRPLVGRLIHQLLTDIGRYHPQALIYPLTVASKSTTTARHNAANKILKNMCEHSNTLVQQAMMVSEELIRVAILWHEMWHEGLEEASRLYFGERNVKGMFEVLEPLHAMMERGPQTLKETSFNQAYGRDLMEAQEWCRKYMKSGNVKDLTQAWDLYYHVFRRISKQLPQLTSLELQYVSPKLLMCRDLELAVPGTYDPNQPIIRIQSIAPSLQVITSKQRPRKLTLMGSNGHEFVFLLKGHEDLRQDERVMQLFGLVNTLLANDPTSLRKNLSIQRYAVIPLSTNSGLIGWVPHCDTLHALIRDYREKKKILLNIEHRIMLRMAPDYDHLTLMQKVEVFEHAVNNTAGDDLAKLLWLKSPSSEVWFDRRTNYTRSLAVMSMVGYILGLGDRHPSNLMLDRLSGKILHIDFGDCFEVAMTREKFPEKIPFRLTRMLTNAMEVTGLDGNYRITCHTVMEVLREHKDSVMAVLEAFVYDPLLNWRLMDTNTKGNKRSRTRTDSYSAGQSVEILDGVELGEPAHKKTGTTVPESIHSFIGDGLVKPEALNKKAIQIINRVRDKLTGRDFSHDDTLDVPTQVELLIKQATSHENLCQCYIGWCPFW

Take `CCn1nccc1-n1c(=O)n(C)c2cnc3ccc(-c4ccc(OC)c(OC)c4)cc3c21` [Example 1.2, 8-(3,4-Dimethoxy-phenyl)-1-(2-ethyl-2H-pyrazol-3-yl)-3-methyl-1,3-dihydro-imidazo[4,5-c]quinolin-2-one]: the IC50 in experiment [1] was determined as 33 nM; at PI3K delta it was 61 nM; at PI3K gamma, 216 nM; in experiment [2], 21 nM; on PI3K beta it was 280 nM; at PI3K alpha, 50 nM. Further, the IC50 in experiment [3] stood at 66 nM; at mTOR, 155 nM.
On to `COc1ncc(-c2ccc3ncc4c(c3c2)n(-c2cn(C)nc2C)c(=O)n4C)cc1F` [Example 13, 1-(1,3-Dimethyl-1H-pyrazol-4-yl)-8-(5-fluoro-6-methoxy-pyridin-3-yl)-3-methyl-1,3-dihydro-imidazo[4,5-c]quinolin-2-one], for which the IC50 on PI3K delta was determined as 15 nM; at PI3K gamma it was 87 nM; on PI3K beta, 25 nM; in experiment [4], 10 nM; at PI3K alpha, 12 nM; at mTOR it was 63 nM.
In the case of `COc1cc(-c2ccc3ncc4c(c3c2)n(-c2c(C)nn(C)c2C)c(=O)n4C)ccc1O` [Example 31, 8-(4-Hydroxy-3-methoxy-phenyl)-3-methyl-1-(1,3,5-trimethyl-1H-pyrazol-4-yl)-1,3-dihydro-imidazo[4,5-c]quinolin-2-one], the IC50 in experiment [1] is 29 nM; on PI3K delta it was 30 nM; at PI3K gamma it was 118 nM; in [2] it was 49 nM; on PI3K beta, 67 nM; on PI3K alpha, 29 nM. Besides, the results for the IC50 (in experiment [3]; on mTOR) were 64 nM and 177 nM, respectively.
As for `Cc1nn(C)cc1-n1c(=O)n(C)c2cnc3ccc(-c4cc(O)cc(F)c4)cc3c21` [Example 33, 1-(1,3-Dimethyl-1H-pyrazol-4-yl)-8-(3-fluoro-5-hydroxy-phenyl)-3-methyl-1,3-dihydro-imidazo[4,5-c]quinolin-2-one], the IC50 in experiment [1] came to 162 nM; on PI3K delta, 16 nM; on PI3K gamma, 128 nM; in experiment [2], 214 nM; at PI3K beta, 46 nM; at PI3K alpha it was 9 nM. Also, the IC50 in [3] was 399 nM; at mTOR it was 110 nM.
In the case of `Cc1nn(C)cc1-n1c(=O)n(C)c2cnc3ccc(-c4cncc(NS(C)(=O)=O)c4)cc3c21` [Example 120, N-{5-[1-(1,3-Dimethyl-1H-pyrazol-4-yl)-3-methyl-2-oxo-2,3-dihydro-1H-imidazo[4,5-c]quinolin-8-yl]-pyridin-3-yl}-methanesulfonamide], the IC50 on PI3K delta turned out to be 10 nM; at PI3K gamma, 116 nM; on PI3K beta, 18 nM; in experiment [4] it was 355 nM; on PI3K alpha, 11 nM; at mTOR it was 5 nM.
For `COc1ccc(-c2ccc3ncc4c(c3c2)n(-c2cn(C)nc2Cl)c(=O)n4C)cc1OC` [Example 1.10, 1-(3-Chloro-1-methyl-1H-pyrazol-4-yl)-8-(3,4-dimethoxy-phenyl)-3-methyl-1,3-dihydro-imidazo[4,5-c]quinolin-2-one], the IC50 in [1] was under 5 nM; on PI3K delta, 10 nM; at PI3K gamma, 238 nM; in [2] it was under 5 nM; at PI3K beta, 6 nM; in experiment [4] it was 1 nM. Also, the results for the IC50 (at PI3K alpha; in experiment [3]) were 9 nM and 5 nM, respectively.
In the case of `CCn1nccc1-n1c(=O)n(C)c2cnc3ccc(-c4ccc(OC)nc4)cc3c21` [Example 2.6, 1-(2-Ethyl-2H-pyrazol-3-yl)-8-(6-methoxy-pyridin-3-yl)-3-methyl-1,3-dihydro-imidazo[4,5-c]quinolin-2-one], the IC50 in [1] amounted to 141 nM; on PI3K delta, 85 nM; at PI3K gamma it was 788 nM; in [2] it was 136 nM; at PI3K beta, 612 nM; at PI3K alpha, 146 nM. For the same compound, the IC50 in experiment [3] amounted to 219 nM; at mTOR, 162 nM.
On to `COc1ncc(-c2ccc3ncc4c(c3c2)n(-c2cn(C)nc2C)c(=O)n4C)cc1C(=O)O` [Example 124, 5-[1-(1,3-Dimethyl-1H-pyrazol-4-yl)-3-methyl-2-oxo-2,3-dihydro-1H-imidazo[4,5-c]quinolin-8-yl]-2-methoxy-nicotinic acid], for which the IC50 on PI3K delta was determined as 20 nM; on PI3K gamma it was 118 nM; on PI3K beta, 83 nM; at PI3K alpha, 37 nM; on mTOR, 53 nM.
`Cc1nn(C)cc1-n1c(=O)n(C)c2cnc3ccc(-c4ccc(NCCO)nc4)cc3c21` [Example 21.2]: the IC50 in experiment [1] was determined as 375 nM; at PI3K delta it was 18 nM; at PI3K gamma, 391 nM; in [2], 273 nM; on PI3K beta it was 205 nM; in experiment [4], 666 nM. The values for the IC50 (at PI3K alpha; in experiment [3]) were 32 nM and 602 nM, respectively.
